Measured values taken from patent publication US12600709B2, “Nonpeptide somatostatin type 5 receptor agonists and uses thereof” (Crinetics Pharmaceuticals, Inc., priority 2019, dated 2026).
Like-named read-outs stand apart in the source and are kept apart here.

Columns and labels:
[1] = biological target: T1, human somatostatin receptor subtype 5 (Homo sapiens, UniProt P35346); assay: cAMP assay for SST5R (inhibition of cAMP in CHO-K1 cells); assay type: cell-based; conditions: for EC50: inhibition of cAMP via human SST5 receptor, read-out: SST5 potency; for Fold selectivity for SST5 vs SST2: class symbols, SST5 receptor over SST2 receptor
T1 construct: expressed in transfected cells
In short: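 CHO-K1 cells stably expressing human SSTR5 were treated 20 min at 37 °C with compounds plus 1.6 μM NKH477 in HBSS, 0.5 mM HEPES pH 7.4, 0.1% BSA, 0.2 mM IBMX. Lysate cAMP measured by HTRF against a standard curve; EC50 from cAMP-versus-concentration plots.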

[2] = biological target: T2, human somatostatin receptor subtype 2 (Homo sapiens, UniProt P30874); assay: cAMP assay for SST2R (inhibition of cAMP in CHO-K1 cells); assay type: cell-based; conditions: Table B; inhibition of cAMP via human SST2 receptor; read-out: SST2 potency
T2 construct: expressed in transfected cells
In short: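 Agonism read as decrease in NKH477 (1.6 μM)-stimulated cAMP: compounds applied 20 min, 37° C, with 0.2 mM IBMX, to CHO-K1 stably expressing human SSTR2. cAMP quantified in lysates by time-resolved fluorescence (HTRF kit, 1-24 h RT), standard-curve regression, then EC50.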

T2 sequence (P30874 whole entry): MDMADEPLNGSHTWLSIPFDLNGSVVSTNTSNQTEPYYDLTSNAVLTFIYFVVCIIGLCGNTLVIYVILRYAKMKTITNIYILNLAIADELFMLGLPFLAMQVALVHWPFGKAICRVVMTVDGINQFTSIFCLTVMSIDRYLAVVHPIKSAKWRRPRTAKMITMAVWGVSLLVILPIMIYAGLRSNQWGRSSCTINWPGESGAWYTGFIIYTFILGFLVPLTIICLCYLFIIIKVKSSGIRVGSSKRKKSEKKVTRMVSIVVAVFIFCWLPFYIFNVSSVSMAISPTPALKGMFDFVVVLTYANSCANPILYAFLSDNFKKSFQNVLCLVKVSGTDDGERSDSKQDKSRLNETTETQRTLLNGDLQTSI
T1 sequence (P35346 whole entry): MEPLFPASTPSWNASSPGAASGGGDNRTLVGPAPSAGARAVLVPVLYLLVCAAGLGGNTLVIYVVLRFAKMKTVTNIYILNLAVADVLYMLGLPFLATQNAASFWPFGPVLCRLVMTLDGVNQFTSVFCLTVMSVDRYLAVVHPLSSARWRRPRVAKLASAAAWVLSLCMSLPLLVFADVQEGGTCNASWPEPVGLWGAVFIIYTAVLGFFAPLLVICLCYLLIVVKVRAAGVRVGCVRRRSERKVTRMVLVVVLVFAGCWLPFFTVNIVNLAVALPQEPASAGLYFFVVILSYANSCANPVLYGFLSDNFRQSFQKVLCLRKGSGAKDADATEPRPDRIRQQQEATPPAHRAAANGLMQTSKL

Row | SMILES | EC50 ([1]; Table A) [nM] | Fold selectivity for SST5 vs SST2 ([1]; Table B) | EC50 ([1]; Table B) [nM] | EC50 [2] [nM]
1 | CC(NC(=O)c1cnc(C#N)c(-c2cc(F)cc(F)c2)c1N1CC[C@](C)(N)C1)c1ncccn1 (stereo partly drawn) [1-126, 4-[(3S)-3-amino-3-methylpyrrolidin-1-yl]-6-cyano-5-(3,5-difluorophenyl)-N-[1-(pyrimidin-2-yl)ethyl]pyridine-3-carboxamide] | < 10 | +++ (+++=>500) | < 10 | > 1000
2 | C[C@H](NC(=O)c1cncc(-c2cccc3c2cnn3C)c1N1CC[C@](C)(N)C1)C1CC1 [1-162, 4-[(3S)-3-amino-3-methylpyrrolidin-1-yl]-N-[(1S)-1-cyclopropylethyl]-5-(1-methyl-1H-indazol-4-yl)pyridine-3-carboxamide] | < 10 | +++ (+++=>500) | < 10 | > 1000
3 | COCCOc1ncc(C(=O)N[C@@H](C)C2CC2)c(N2CC[C@](C)(N)C2)c1-c1cc(F)cc(F)c1 [1-179, 4-[(3S)-3-amino-3-methylpyrrolidin-1-yl]-N-[(1S)-1-cyclopropylethyl]-5-(3,5-difluorophenyl)-6-(2-methoxyethoxy)pyridine-3-carboxamide] | < 10 | +++ (+++=>500) | < 10 | 100 to 1000
4 | CC(NC(=O)c1cnc(C#N)c(-c2cc(F)cc(F)c2)c1N1CC[C@H](N)C1)C(F)(F)F (stereo partly drawn) [1-226, 4-[(3S)-3-aminopyrrolidin-1-yl]-6-cyano-5-(3,5-difluorophenyl)-N-(1,1,1-trifluoropropan-2-yl)pyridine-3-carboxamide] | < 10 | ++ (++=100 to 499) | < 10 | 100 to 1000
5 | C[C@]1(N)CCN(c2c(C(=O)NC3CCCCCC3)ccnc2-c2cc(F)cc(F)c2)C1 [3-6, 3-[(3S)-3-amino-3-methylpyrrolidin-1-yl]-N-cycloheptyl-2-(3,5-difluorophenyl)pyridine-4-carboxamide] | < 10 | +++ (+++=>500) | < 10 | > 1000
6 | C[C@@H](NC(=O)c1cncc(-c2cc(F)cc(F)c2)c1N1CC[C@](C)(N)C1)C1CC1 [1-44, 4-[(3S)-3-amino-3-methylpyrrolidin-1-yl]-N-[(1R)-1-cyclopropylethyl]-5-(3,5-difluorophenyl)pyridine-3-carboxamide] | < 10 | ++ (++=100 to 499) | < 10 | 100 to 1000
7 | Cn1nccc1CNC(=O)c1cnc(C#N)c(-c2cc(F)cc(F)c2)c1N1CC[C@](C)(N)C1 [1-104, 4-[(3S)-3-amino-3-methylpyrrolidin-1-yl]-6-cyano-5-(3,5-difluorophenyl)-N-[(1-methyl-1H-pyrazol-5-yl)methyl]pyridine-3-carboxamide] | < 10 | +++ (+++=>500) | < 10 | > 1000
8 | COc1ncc(C(=O)N[C@@H](C)C2CC2)c(N2CC[C@](C)(N)C2)c1-c1ccc(F)c(F)c1 [1-262, 4-[(3S)-3-amino-3-methylpyrrolidin-1-yl]-N-[(1S)-1-cyclopropylethyl]-5-(3,4-difluorophenyl)-6-methoxypyridine-3-carboxamide] | < 10 | +++ (+++=>500) | < 10 | 100 to 1000
9 | CCC(CC)NC(=O)c1cnc(C#N)c(-c2ccnc(OC)c2)c1N1CC[C@](C)(N)C1 [1-253, 4-[(3S)-3-amino-3-methylpyrrolidin-1-yl]-2-cyano-2′-methoxy-N-(pentan-3-yl)-[3,4′-bipyridine]-5-carboxamide] | < 10 | +++ (+++=>500) | < 10 | 100 to 1000
10 | C[C@H](NC(=O)c1cnc(C#N)c(-c2cc(F)cc(F)c2)c1N1CC[C@H](N)C1)C(F)(F)F [1-71, 4-[(3S)-3-aminopyrrolidin-1-yl]-6-cyano-5-(3,5-difluorophenyl)-N-[(2S)-1,1,1-trifluoropropan-2-yl]pyridine-3-carboxamide] | < 10 | +++ (+++=>500) | < 10 | 100 to 1000
11 | Cc1ncc(C(=O)N[C@@H](C)C2CC2)c(N2CC[C@H](N)C2)c1-c1cc(F)cc(Cl)c1 [1-272, 4-[(3S)-3-aminopyrrolidin-1-yl]-5-(3-chloro-5-fluorophenyl)-N-[(1S)-1-cyclopropylethyl]-6-methylpyridine-3-carboxamide] | < 10 | +++ (+++=>500) | < 10 | 100 to 1000
12 | CCOC(=O)CCOc1ncc(C(=O)NC2CCC(F)(F)CC2)c(N2CC[C@H](N)C2)c1-c1cc(F)cc(F)c1 [1-201, ethyl 3-({4-[(3S)-3-aminopyrrolidin-1-yl]-5-[(4,4-difluorocyclohexyl)carbamoyl]-3-(3,5-difluorophenyl)pyridin-2-yl}oxy)propanoate] | < 10 | +++ (+++=>500) | < 10 | > 1000
13 | N#Cc1ncc(C(=O)NC23CC(C2)C3)c(N2C[C@@H](N)[C@H](F)C2)c1-c1cc(F)cc(F)c1 [1-101, 4-[(3R,4R)-3-amino-4-fluoropyrrolidin-1-yl]-N-{bicyclo[1.1.1]pentan-1-yl}-6-cyano-5-(3,5-difluorophenyl)pyridine-3-carboxamide] | < 10 | +++ (+++=>500) | < 10 | > 1000
14 | CCOc1ncc(C(=O)N[C@@H](C)C2CC2)c(N2CC[C@](C)(N)C2)c1-c1cc(F)cc(F)c1 [1-176, 4-[(3S)-3-amino-3-methylpyrrolidin-1-yl]-N-[(1S)-1-cyclopropylethyl]-5-(3,5-difluorophenyl)-6-ethoxypyridine-3-carboxamide] | < 10 | +++ (+++=>500) | < 10 | 100 to 1000
15 | C[C@H](NC(=O)c1cnc(C#N)c(-c2cccc(OC(F)(F)F)c2)c1N1CC[C@](C)(N)C1)C1CC1 [1-127, 4-[(3S)-3-amino-3-methylpyrrolidin-1-yl]-6-cyano-N-[(1S)-1-cyclopropylethyl]-5-[3-(trifluoromethoxy)phenyl]pyridine-3-carboxamide] | < 10 | +++ (+++=>500) | < 10 | 100 to 1000
16 | COc1cc(-c2c(C)ncc(C(=O)NC3CCCC3)c2N2CC[C@](C)(N)C2)ccn1 [1-256, 4-[(3S)-3-amino-3-methylpyrrolidin-1-yl]-N-cyclopentyl-2′-methoxy-2-methyl-[3,4′-bipyridine]-5-carboxamide] | < 10 | +++ (+++=>500) | < 10 | > 1000
17 | COc1ncc(C(=O)N[C@@H](C)C2CC2)c(N2CC[C@](C)(N)C2)c1-c1cc(F)cc(C(F)(F)F)c1 [1-164, 4-[(3S)-3-amino-3-methylpyrrolidin-1-yl]-N-[(1S)-1-cyclopropylethyl]-5-[3-fluoro-5-(trifluoromethyl)phenyl]-6-methoxypyridine-3-carboxamide] | < 10 | +++ (+++=>500) | < 10 | 100 to 1000
18 | C[C@H](NC(=O)c1cnc(C#N)c(-c2cc(F)cc(F)c2)c1N1CC[C@](N)(CC(F)F)C1)C1CC1 [1-118, 4-[(3S)-3-amino-3-(2,2-difluoroethyl)pyrrolidin-1-yl]-6-cyano-N-[(1S)-1-cyclopropylethyl]-5-(3,5-difluorophenyl)pyridine-3-carboxamide] | < 10 | +++ (+++=>500) | < 10 | > 1000
19 | C[C@H](NC(=O)c1cnc(OCCO)c(-c2cc(F)cc(F)c2)c1N1CC[C@](C)(N)C1)C1CC1 [1-246, 4-[(3S)-3-amino-3-methylpyrrolidin-1-yl]-N-[(1S)-1-cyclopropylethyl]-5-(3,5-difluorophenyl)-6-(2-hydroxyethoxy)pyridine-3-carboxamide] | < 10 | +++ (+++=>500) | < 10 | 100 to 1000
20 | Cc1cccc2[nH]c(-c3cncc(C(=O)N4CC5CCC4CC5)c3N3CC[C@](C)(N)C3)nc12 [2-35, (3S)-1-(3-{2-azabicyclo[2.2.2]octane-2-carbonyl}-5-(4-methyl-1H-1,3-benzodiazol-2-yl)pyridin-4-yl)-3-methylpyrrolidin-3-amine] | < 10 | ++ (++=100 to 499) | < 10 | 100 to 1000
21 | CC(C)CNC(=O)c1cnc(C#N)c(-c2ccnc(C(F)(F)F)c2)c1N1CC[C@](C)(N)C1 [1-250, 4-[(3S)-3-amino-3-methylpyrrolidin-1-yl]-2-cyano-N-(2-methylpropyl)-2′-(trifluoromethyl)-[3,4′-bipyridine]-5-carboxamide] | < 10 | +++ (+++=>500) | < 10 | > 1000
22 | C[C@H](NC(=O)c1cnc(C#N)c(-c2ccnc(C(F)(F)F)c2)c1N1CC[C@](C)(N)C1)C(F)(F)F [1-169, 4-[(3S)-3-amino-3-methylpyrrolidin-1-yl]-2-cyano-2′-(trifluoromethyl)-N-[(2S)-1,1,1-trifluoropropan-2-yl]-[3,4′-bipyridine]-5-carboxamide] | < 10 | +++ (+++=>500) | < 10 | 100 to 1000
